Tests used:
porcine putative zygotes = test: In vitro fertilization parameter evaluation by nuclear staining of putative zygotes; assay type: cell-based; settings: 12 hours after IVF; n=4 zygotes per group; preliminary, subjective
Method: (§1) Experimental Design: Three trials were conducted, each trial utilizing 30 porcine oocytes per treatment group (90 total oocytes per each of four treatment groups). Oocytes were purchased from Trans Ova Genetics, Sioux City, Iowa. Treatment groups were: 1) Control (no supplemental anti-oxidants); 2) GSH supplementation (1.0 mM); 3) NAC supplementation (1.0 mM); and 4) NAC amide supplementation (1.0 mM).
(§2) In vitro Fertilization (IVF) of Oocytes: Cumulus cells by were removed by agitation with 0.1% hyaluronidase, washed and placed in Tris-fertilization medium (113.1 mM NaCl, 3 mM KCl, 7.5 mM CaCl2.2H2O, 20 mM Tris, 11 mM D (+)-glucose, 5 mM sodium pyruvate, 1 mg/mL BSA, 2 mM caffeine) with mineral oil overlay and freeze-thawed spermatozoa were added at a concentration of 2000 spermatozoa/oocyte. The gametes were incubated at 39° C. in an atmosphere of 5% CO2 for approximately 6 hours.
In vitro Fertilization Parameter Evaluation: Fertilization was analyzed 12 hours after IVF by fixing the oocytes on a microscope slide with 25% (v:v) acetic acid in ethanol at room temperature for 48 hours. Oocytes were stained with 1% orcein in 45% (v:v) acetic acid and examined using a phase-contrast microscope at 400× magnification.
Fertilization parameters were subjectively examined by nuclear staining samples (n=4) of putative zygotes from each of the treatment groups 12 hours after IVF was complete (Illustration 1, * indicates pronucleus). In the preliminary analysis, only a small number of zygotes were subjected to staining, since the intent of the studies described herein was to assess the number of zygotes that continued development to the 2-cell and blastocyst stages. This analysis was simply to see if any obvious anomalies were occurring.

[1] = test system: porcine oocytes / embryos; test: Embryo development to 2-cell and blastocyst stage after IVF in supplemented media (Example 1); assay type: cell-based; settings: for % embryos reaching 2-cell stage of development / % embryos reaching blastocyst stage of development (of those in observed in the 2-cell stage): supplementation 1.0 mM, IVF; for % embryos reaching 2-cell stage of development: control 19; for % embryos reaching blastocyst stage of development (of those in observed in the 2-cell stage): culture to blastocyst stage, control 40
Method: (§3) This Example describes an evaluation of the effects of NAC amide, glutathione (GSH) and N-acetylcysteine (NAC) supplementation to incubation and culture media during porcine oocyte maturation, fertilization and embryo culture on various measures of fertilization and embryo development, as well as on the intracellular concentration of GSH.
as §1
(§4) In vitro Maturation: Oocytes were maturated for 20 to 24 hours in tissue culture medium 199 with Earle's salts, 0.01 U/mL LH and FSH, 10 ng/mL EGF, antibiotics, and 10% fetal calf serum under mineral oil (Specialty Media, Phillipsburg, N.J.) at 39° C. in an atmosphere of 5% CO2 and then for an additional 20 to 24 h without hormones.
as §2
In vitro Culture: Putative zygotes were washed and incubated in NCSU-23 culture medium (108.73 mM NaCl, 4.78 mM KCl, 1.19 mM KH2PO4, 1.19 mM MgSO4.7H2O, 5.5 mM glucose, 1 mM glutamine, 7 mM taurine 5 mM hypotaurine, 25.07 mM NaHCO3, 1.7 mM CaCl2.2H2O, 75 μg/mL Penicillin G, 50 μg/mL Streptomycin, 4 mg/mL BSA, pH 7.4) with mineral oil overlay at 39° C. in an atmosphere of 5% CO2 for 48 hours. After 48 hours, embryos that had undergone the first cell division were placed in fresh NCSU 23 culture media in the same manner as described above until blastocyst formation, 144 hours post-IVF.
The remaining zygotes were cultured through the blastocyst stage of development ([…]) in their respective media and their development and viability progress was recorded (Table 2). NAC amide supplementation of the culture medium enhanced the development of zygotes to the 2-cell stage and further aided the subsequent final percentage of those embryos reaching the 2-cell stage that continued development onto the blastocyst stage (the endpoint of in vitro analysis).

porcine oocytes = test: Glutathione assay: intracellular GSH concentration per oocyte after supplementation of maturation medium; assay type: cell-based; settings: supplementation 1.0 mM; for GSH concentration/oocyte: porcine oocytes, control 3.19
Method: as §3, §1, §4
Glutathione Assay: Oocytes were washed in PBS, frozen, and ruptured using a blunt glass rod in phosphoric acid. The assay was performed as described previously (B. D. Whitaker and J. W. Knight, 2004, Theriogenology, 62:311-322) and the amount of GSH was determined using a standard curve of concentration GSH versus rate of change in absorbency.

[2] = cell-free system; cited from earlier work
[3] = test system: mammalian red blood cells (RBCs); settings: cited from earlier work
[4] = test system: porcine oocytes / embryos; test: Embryo development after IVF with NAC amide supplementation (Example 4); assay type: cell-based; settings: of 70 oocytes
Source text: (§5) This Example investigates the effects of NAC amide supplementation to culture media during porcine oocyte maturation, fertilization, and embryo culture on intracellular concentrations of GSH after oocyte maturation, IVF parameters, success of intracytoplasmic sperm injection (ICSI), and embryo development following ICSI and pronuclear microinjection.
(§6) All chemicals, unless otherwise specified, were obtained from Sigma Chemical Company (St. Louis, Mo.) and were of embryo grade quality. Dr. Glenn Goldstein and associates provided the NAC amide. Oocytes (BoMed, Madison, Wis.) were maturated for 20 to 24 h in tissue culture medium 199 supplemented with Earle's salts, 0.01 U/mL LH and FSH, antibiotics, and 10% fetal calf serum under mineral oil (Specialty Media, Phillipsburg, N.J.) at 39° C. in an atmosphere of 5% CO2 and then for an additional 20 to 24 h without hormones.
Cumulus cells were removed by agitation with 0.1% hyaluronidase, washed and placed in Tris-fertilization medium (113.1 mM NaCl, 3 mM KCl, 7.5 mM CaCl2.2H2O, 20 mM Tris, 11 mM D(+)-glucose, 5 mM sodium pyruvate, 1 mg/mL BSA, 2 mM caffeine) with mineral oil overlay and frozen-thawed spermatozoa were added at a concentration of 2000 spermatozoa/oocyte. The gametes were incubated at 39° C. in an atmosphere of 5% CO2 for approximately 6 h. […]

[5] = test system: porcine oocytes / embryos; test: Embryo development after intracytoplasmic sperm injection (ICSI) with NAC amide supplementation (Example 4); assay type: cell-based; settings: of 24 oocytes
Source text: as §5, §6
Cumulus cells were removed by agitation with 0.1% hyaluronidase, washed and placed in microdrops of NCSU-23 culture medium (108.73 mM NaCl, 4.78 mM KCl, 1.19 mM KH2PO4, 1.19 mM MgSO4.7H2O, 5.5 mM glucose, 1 mM glutamine, 7 mM taurine 5 mM hypotaurine, 25.07 mM NaHCO3, 1.7 mM CaCl2.2H2O, 75 μg/mL Penicillin G, 50 μg/mL Streptomycin, 4 mg/mL BSA, pH 7.4) with mineral oil overlay at 39° C. after centrifugation at 15000×g. Frozen-thawed sperm were then placed in an adjacent microdrop. […]

Row | Compound | changes on fertilization events (nuclear staining) (porcine putative zygotes) | % embryos reaching 2-cell stage of development [1] | % embryos reaching blastocyst stage of development (of those in observed in the 2-cell stage) [1] | GSH concentration/oocyte (porcine oocytes) | intracellular GSH concentration, statistical comparison with control (porcine oocytes; P<0.05) | reaction with oxidized glutathione (GSSG) [2] | hemoglobin oxidation ([3]; RBCs) | tert.-butylhydroxyperoxide (BuOOH)-induced intracellular oxidation ([3]; RBCs) | restoration of thiol-depleted RBCs ([3]; externally applied, compared with NAC) | # of Embryos reaching blastocyst stage of development ([4]; control 6 of 67) | # of Embryos reaching 2-cell stage of development ([4]; control 10 of 67) | % of embryos developing to the 2-cell and blastocyst stages, statistical comparison ([1]; 2-cell P<0.05, blastocyst P<0.10) | # of Embryos reaching blastocyst stage of development ([5]; control 2 of 25) | # of Embryos reaching 2-cell stage of development ([5]; control 5 of 25) | greater increase in intracellular GSH compared with supplementation of GSH per se (porcine oocytes) | greater intracellular GSH concentration compared with NAC supplementation (porcine oocytes) | increase in intracellular GSH concentration compared with control (porcine oocytes) | intracellular GSH concentration, statistical comparison with GSH (porcine oocytes; P<0.05)
1 | N[C@@H](CCC(=O)N[C@@H](CS)C(=O)NCC(=O)O)C(=O)O [GSH, glutathione] | did not have any noticeable changes | 25% | 40% | 4.18 pmol |  |  |  |  |  |  |  |  |  |  |  |  |  | 
2 | CC(=O)N[C@@H](CS)C(=O)O [NAC, N-acetylcysteine] | did not have any noticeable changes | 30% | 55% | 6.00 pmol | significantly (P<0.05) higher than control |  |  |  |  |  |  |  |  |  |  |  |  | 
3 | N-acetylcysteine amide [NAC amide] | did not have any noticeable changes | 45% | 85% | 7.03 pmol | significantly (P<0.05) higher than control | react with oxidized glutathione (GSSG) to generate reduced glutathione (GSH) | protected hemoglobin from oxidation | inhibit | significantly greater than that found using NAC | 12 | 22 | significantly greater % of embryos | 5 | 12 | 40% | 15% | 2.2 fold | significantly (P<0.05) higher than GSH
